From paper PMC8016481, “Tachykinin signaling inhibits task-specific behavioral responsiveness in honeybee workers” (eLife, 2021)

What was measured:
[1] = test system: worker bees (Apis mellifera ligustica); test: Proboscis extension response (PER) after TRP2 injection; type: in vivo; conditions: for reduction of SRS vs ddH2O, Z: Mann-Whitney U test; for PER ratio: 1 μl of 1 μg/μl into head, 1 hr after injection
Protocol: To investigate the sucrose responsiveness, bees were assayed using an ascending order of sucrose concentrations: 0.1%, 0.3%, 1%, 3%, 10%, and 30% (weight/weight). A small droplet of each solution was touched to the bees’ antennae for 3 s and the extension of the proboscis was monitored during this time. The interval between each sucrose solution trial was 5 min to exclude sensitization or habituation effects. The total number of PER responses after stimulation with the six different sucrose concentrations was combined into an SRS of a bee ([Pankiw et al., 2001]; [Scheiner et al., 2002]; [Scheiner et al., 2003]). The SRSs of the three behavioral phenotypes in the same species were compared using Kruskal-Wallis tests with Bonferroni correction. Pairwise Mann-Whitney U tests were used for comparing the same phenotype from two honeybee species. The sucrose responsiveness for specific sucrose concentrations was further compared between different groups with independent chi-square tests.
To test pollen stimulation, fresh pollen loads that had been removed from the leg of randomly selected PFs of the test group were used: AML were tested with pollen collected by AML foragers and ACC with pollen collected by ACC foragers. These loads contained a mixture of different pollen, predominated by black locust (R. pseudoacacia). As a control for mechanical stimulation, each bee had both antennae first touched with a piece of filter paper and spontaneous responders were excluded. Subsequently, both antennae of each bee were gently touched with a pollen load and PER responses were recorded. The pollen responsiveness was compared with independent chi-square tests between different groups.
To test responsiveness to larva, 1-day-old larvae from each honeybee species were collected, briefly rinsed in distilled water to remove royal jelly residue and dried on a filter paper. As before, both antennae of bees were touched with a piece of filter paper first and spontaneous responders were excluded, then PERs in response to a larva touching the antennae were recorded. The responsiveness to larvae was compared with independent chi-square tests between different groups. Statistical analyses were conducted using SPSS Statistics 20.0 (IBM, USA).
To confirm the function of TRP on task-specific responsiveness, NBs, PFs, and NFs of AML were injected with TRP2 and tested for their PER response to sucrose solution, pollen, and larva. About 150 bees of each behavioral phenotype were collected in the morning, then harnessed, fed and placed in a dark incubator as described in 'Comparative PER experiments' section. […] Bees injected with ddH2O were used as control. All injected bees were put back to the dark incubator and 1 hr after injection all surviving bees were assayed for their PER to stimulations of sucrose solution, pollen, and larva as described in 'Comparative PER experiments' section. Each experiment was performed with a new set of bees containing about 55 individuals per experimental and control group.
The sucrose responsiveness was further compared between different groups at each specific sucrose concentration with independent chi-square tests. […] All statistical analyses were performed with SPSS Statistics 20.0 (IBM).

TRPR [2] = test system: TRPR
ERK phosphorylation = ERK phosphorylation in brain of worker bees after TRP2 injection or TRP/TRPR knockdown (Western blot); type: in vivo, Apis mellifera ligustica; conditions: for ERK phosphorylation in brain: 6A
Protocol: Cells were seeded in 24-well plates and starved for 4 hr in serum-free medium to reduce background ERK1/2 activation and eliminate the effects of the change of medium. […] Protein concentration was determined according to the Bradford method using BSA as the standard and the absorption was measured at 595 nm (spectrophotometer DU800, Beckman Coulter, USA), then all the samples were kept in −80°C for further use. For Western blot, equal amounts of total cell lysate (20 μg/lane) were fractionated by SDS-PAGE (10%) and transferred to a PVDF membrane (Millipore, USA) using an iBlot dry blotting system (Invitrogen, USA). The membranes were blocked for 2 hr at room temperature and then incubated with rabbit monoclonal anti-pERK1/2 antibody (Cell Signaling Technology, USA) and anti-rabbit horseradish peroxidase-conjugated secondary antibody (Cell Signaling Technology) according to the manufacturers’ protocols. Antibody reactive bands were visualized using Pierce ECL western blotting substrate (Thermo Fisher Scientific, USA) followed by photographic film exposure. Total ERK1/2 was assessed as a loading control after p-ERK1/2 chemiluminescence detection. Quantification analyses were performed using Gel-Pro Analyzer 4.0 software (Media Cybernetics, USA).
Three independent replicate groups per condition were collected and Western blot analyses were performed: Honeybee brains were carefully dissected and frozen at −80°C until protein extraction. Brain protein extractions were carried out according to our previously described method with some modifications. Briefly, the […] were homogenized with lysis buffer (LB, 8 M urea, 2 M thiourea, 4% CHAPS, 20 mM Tris-base, 30 mM dithiothreitol). The mixture was homogenized for 30 min on ice and sonicated 20 s per 5 min during this time, then centrifuged at 12,000 g and 4°C for 10 min. Ice-cold acetone was added to the collected supernatants, and then the mixture was kept on ice for 30 min for protein precipitation. Subsequently, the mixture was centrifuged at 12,000 g and 4°C for 10 min. The supernatant was discarded and the pellets were resolved in LB and kept at −20°C for further use. Western blot analyses were performed as described in 'TRP/TRPR signaling targets: cAMP, Ca^2+, and ERK' section.

TRPR [3] = test system: TRPR; remark: listed apart in the source
TRPR [4] = test system: TRPR; remark: listed apart in the source

Q: Which “effect on larva responsiveness vs ddH2O, χ^2” value ([1]; NBs, chi-square test) does the source give for ALMGFQGVRa [TRP2] here?
A: 6.1

Q: And the “effect on larva responsiveness” value ([1]; NBs, vs ddH2O)?
A: significantly affected the responsiveness of NBs

Q: And the “effect on sucrose responsiveness” value ([1]; NBs, vs ddH2O)?
A: did not show significant responsiveness changes to sucrose

Q: What about the “effect on larva responsiveness” value ([1]; NFs and PFs, vs ddH2O) of the same substance?
A: not NFs or PFs

Q: And the “reduction of SRS vs ddH2O, Z” value ([1]; NFs)?
A: 2.3

Q: What about the “effect on sucrose responsiveness” value ([1]; NFs, vs ddH2O) of the same substance?
A: significantly reducing PER responses to all sucrose concentrations except 0.1%

Q: And the “reduction of SRS vs ddH2O, Z” value ([1]; PFs)?
A: 2.2

Q: What about the “decrease of pollen responsiveness vs ddH2O, χ^2” value ([1]; PFs, chi-square test) of the same substance?
A: 6.7

Q: What about the “effect on pollen responsiveness” value ([1]; PFs, vs ddH2O) of the same substance?
A: significantly decreased responsiveness to pollen loads

Q: And the “effect on sucrose responsiveness” value ([1]; PFs, vs ddH2O)?
A: significantly reducing PER responses to all sucrose concentrations used

Q: What about the PER ratio ([1]; nectar foragers, larva stimulus) of the same substance?
A: 11.54%

Q: What about the PER ratio ([1]; nectar foragers, pollen stimulus) of the same substance?
A: 15.38%

Q: And the PER ratio ([1]; nectar foragers, sucrose 0.1%)?
A: 10.34%

Q: What about the PER ratio ([1]; nectar foragers, sucrose 0.3%) of the same substance?
A: 10.34%

Q: What about the PER ratio ([1]; nectar foragers, sucrose 1.0%) of the same substance?
A: 12.07%

Q: What about the PER ratio ([1]; nectar foragers, sucrose 3.0%) of the same substance?
A: 13.79%

Q: And the PER ratio ([1]; nectar foragers, sucrose 10.0%)?
A: 20.69%

Q: What about the PER ratio ([1]; nectar foragers, sucrose 30.0%) of the same substance?
A: 25.86%

Q: What about the PER ratio ([1]; nurse bees, larva stimulus) of the same substance?
A: 18.18%

Q: What about the PER ratio ([1]; nurse bees, pollen stimulus) of the same substance?
A: 12.73%

Q: What about the PER ratio ([1]; nurse bees, sucrose 0.1%) of the same substance?
A: 15.38%

Q: What about the PER ratio ([1]; nurse bees, sucrose 0.3%) of the same substance?
A: 19.23%

Q: And the PER ratio ([1]; nurse bees, sucrose 1.0%)?
A: 25.00%

Q: And the PER ratio ([1]; nurse bees, sucrose 3.0%)?
A: 30.77%

Q: What about the PER ratio ([1]; nurse bees, sucrose 10.0%) of the same substance?
A: 40.38%

Q: What about the PER ratio ([1]; nurse bees, sucrose 30.0%) of the same substance?
A: 48.08%

Q: What about the PER ratio ([1]; pollen foragers, larva stimulus) of the same substance?
A: 22.64%

Q: And the PER ratio ([1]; pollen foragers, pollen stimulus)?
A: 16.98%

Q: What about the PER ratio ([1]; pollen foragers, sucrose 0.1%) of the same substance?
A: 16.98%

Q: What about the PER ratio ([1]; pollen foragers, sucrose 0.3%) of the same substance?
A: 20.75%

Q: And the PER ratio ([1]; pollen foragers, sucrose 1.0%)?
A: 22.64%

Q: What about the PER ratio ([1]; pollen foragers, sucrose 3.0%) of the same substance?
A: 28.30%

Q: And the PER ratio ([1]; pollen foragers, sucrose 10.0%)?
A: 32.08%

Q: And the PER ratio ([1]; pollen foragers, sucrose 30.0%)?
A: 47.17%

Q: What about the “intracellular Ca2+ levels” value (TRPR [2]) of the same substance?
A: rose sharply

Q: And the “ERK phosphorylation in brain” value (ERK phosphorylation; NB, replicate 1)?
A: 0.0746

Q: And the “ERK phosphorylation in brain” value (ERK phosphorylation; NB, replicate 2)?
A: 0.0650

Q: And the “ERK phosphorylation in brain” value (ERK phosphorylation; NB, replicate 3)?
A: 0.0783

Q: What about the “ERK phosphorylation in brain” value (ERK phosphorylation; NF, replicate 1) of the same substance?
A: 0.5050

Q: And the “ERK phosphorylation in brain” value (ERK phosphorylation; NF, replicate 2)?
A: 0.5454

Q: And the “ERK phosphorylation in brain” value (ERK phosphorylation; NF, replicate 3)?
A: 0.5933

Q: What about the “ERK phosphorylation in brain” value (ERK phosphorylation; PF, replicate 1) of the same substance?
A: 0.2191

Q: What about the “ERK phosphorylation in brain” value (ERK phosphorylation; PF, replicate 2) of the same substance?
A: 0.2416

Q: What about the “ERK phosphorylation in brain” value (ERK phosphorylation; PF, replicate 3) of the same substance?
A: 0.2036

Q: What about the “level of phosphorylated ERK in brain” value (ERK phosphorylation; after injection into NBs, PFs and NFs, vs ddH2O) of the same substance?
A: significantly increased

Q: And the “cAMP and Ca2+ signaling, TRP2 compared with TRP3” value (TRPR [3])?
A: induced higher cAMP and Ca^2+ signaling than TRP3

Q: And the “increase of cAMP levels” value (TRPR [3])?
A: more than 10 fold

Q: And the “time by which ERK phosphorylation is near basal levels” value (TRPR [4])?
A: ≤ 90 min

Q: What about the “time of maximal ERK phosphorylation” value (TRPR [4]) of the same substance?
A: 2 min
